In patent publication US7629368B2, “Nitroderivatives as drugs for diseases having an inflammatory basis” (Nicox S.A., priority 2000, dated 2009):
Structures can show the parent of a compound that is named as a salt.

Key:
[1] = tested on: Human adenocarcinoma HT29 cells; assay: 3H-timidine incorporation in human adenocarcinoma HT29 cells; format: cell-based; conditions: 15 hours, cells treated only with Cisplatinum = 100; for timidine incorporation, With 25 μM Cisplatinum: compound 200 μM plus Cisplatinum 25 μM; for timidine incorporation, Without Cisplatinum: compound 200 μM
Experimental: Determination In Vitro of the Effect of the Compounds of the Invention on the Timidine Incorporation in Human Adeno-Carcinoma HT29 Cells. Human adenocarcinoma cells are sown on plates having 24 wells (2.5×10^5 cells/plate) with a standard culture medium. After 24 hours some plates are inoculated with the tested compounds dissolved in dimethylsulphoxide at a 200 μM concentration and others are treated with the tested compounds dissolved in dimethylsulphoxide at a 200 μM concentration in the presence of a solution of cisplatinum 25 μM. After 15 hours of incubation the plates are put into contact with a solution of ^3H-timidine […] (RAS. 3,000 Ci/mol). The cell monolayer of each plate is first washed twice with a cold saline buffer, then treated with TCA (trichloroacetic acid) at 5% for 10 minutes and then washed three times with absolute alcohol. The cells of each well are dissolved in 500 μl of NaOH 0.1N and the incorporated radioactivity is determined by scintallation counting. The obtained results are reported in Table 4 and expressed as percentage of ^3H-Timidine incorporated in the cells treated with the tested compounds and in the presence of Cisplatinum, considering equal to 100 the amount of ^3H-Timidine incorporated in the cells treated only with Cisplatinum.

[2] = tested on: liver injury induced by concanavalin A; assay: Protection from liver injury induced by concanavalin A; format: in vivo; conditions: ip, plasmatic glutamic-pyruvic transaminase vs treated control group (=100), 8 hours after concanavalin A 0.3 mg/rat i.v.; for response vs control in vivo at 500 mg/kg: 500 mg/kg intraperitoneal; for response vs control in vivo at 300 mg/kg: 300 mg/kg intraperitoneal; for response vs control in vivo at 200 mg/kg: 200 mg/kg intraperitoneal
Description: Determination of the capability of the compounds of the invention to protect the animals from the liver injury induced by concanavalin A.
The model in vivo used in the present example has been described in Tiegs G, Hentshel J, A Wendel. A T cell-dependent experimental liver injury in mice induced by Concanavalin A. J. Clin. Invest. 1992; 90:196-203.
The animals ([…] of Swiss stock weighing about 20 g) are divided in groups of at least No. 10 animals for group.
The animals receive concanavalin and solvent (treated control group), solvent (polyethylene glycol 400-untreated control group), concanavalin and tested compound dissolved in the solvent (treated groups).
Rats are treated intravenously with concanavalin A (0.3 mg/rat), and after 5 minutes they receive by intraperitoneal injection the tested compounds, at the doses reported in Table 1, dissolved in polyethylenglycol 400.
Eight hours after the concanavalin A injection all the animals were sacrificed and the blood collected and examined. The data, reported in Table 1, are expressed as value of the plasmatic glutamic-pyruvic transaminase percentage of the animals treated with the tested compound with respect to the animals of the treated control group.

[3] = tested on: Human adenocarcinoma (HT29) cells; assay: Antiproliferative activity in cancerous cells, cellular growth by haemocytometer; format: cell-based; conditions: 96 hours, controls = 100, read-out: Proliferation %
Experimental: Determination of the Antiproliferative Activity of the Compounds of the Invention in Cancerous Cells.
Human adenocarcinoma (HT29) cells taken from colon affected by cancerous process were transferred into plates with 24 wells containing a cellular culture medium formed by 10% of foetal bovine serum, penicillin (50 U/ml), streptomycin ([…]) and PEG 400 (polyethylenglycol). After 24 hours a part of the plates is inoculated with the tested compounds dissolved in the carrier (PEG 400). 96 hours after the inoculation of the compounds the cellular growth was measured by haemocytometer. The results, reported in Table 2, are expressed as percentage of the cellular proliferation with respect to the controls.

[4] = tested on: T24 human epithelial cells of bladder cancer; assay: Antiproliferative activity, MTT, bladder cancer line T24; format: cell-based; conditions: Epithelial cell, 96 h, 4 days, vs DMSO 1%, read-out: Inhibition of the proliferative activity (%); for inhibition at 100 µM: 10^-4 M; for inhibition at 10 µM: 10^-5 M; for inhibition at 1 µM: 10^-6 M
Experimental: (§1) Determination of the Antiproliferative Activity of the Compounds of the Invention in Cancerous Epithelial Cells of Bladder and Prostate.
(§2) The experiment was carried out by using three human epithelial cellular lines of the prostate cancer (PNT1A; LLNCaP; PC3) and three human epithelial cellular lines of the bladder cancer (T24; 647V; 1207), the various types of cellular lines are identified on the basis of the characteristics, in particular of the aggressiveness, of the cancerous process.
(§3) The cancerous cells are sown, with an initial concentration of 20,000 cells/cm^2, in plates having 96 wells with a cellular culture medium RPMI added with foetal bovine serum 5% and L-Glutamine 1%. Solutions in dimethylsulphoxide of the tested compounds at three different concentrations (10^−6 M; 10^−5M; 10^−4M) or the carrier (DMSO 1%) are added to the culture medium. 4 days after the treatment the cellular growth was measured by the method with MTT (3-[4,5-dimethylthiazol-2-yl]-2,5-diphenyltetrazolium bromide) de-scribed by Turner in: Turner T., Chen P., Goodly L. J., Wells A. Clin. Exp. Metastasis 1996, 14, 409-418. The results, reported in Table 3, are expressed as inhibition percentage of the cellular proliferation determined by measuring the cellular proliferation in the cellular cultures treated with the tested compounds with respect to that measured in cellular cultures treated with dimethylsulphoxide 1%.

[5] = tested on: PC3 human epithelial cells of prostate cancer; assay: Antiproliferative activity, MTT, prostate cancer line PC3; format: cell-based; conditions: Epithelial cell, 96 h, 4 days, vs DMSO 1%, read-out: Inhibition of the proliferative activity (%); for inhibition at 100 µM: 10^-4 M; for inhibition at 10 µM: 10^-5 M; for inhibition at 1 µM: 10^-6 M
Experimental: as §1, §2, §3

[6] = tested on: LNCaP human epithelial cells of prostate cancer; assay: Antiproliferative activity, MTT, prostate cancer line LNCaP; format: cell-based; conditions: 96 h, 4 days, vs DMSO 1%, read-out: Inhibition of the proliferative activity (%); for inhibition at 100 µM: 10^-4 M; for inhibition at 10 µM: 10^-5 M; for inhibition at 1 µM: 10^-6 M
Experimental: as §1, §2, §3

[7] = tested on: human epithelial cellular lines of the prostate cancer and of the bladder cancer; assay: Antiproliferative activity in prostate and bladder cancer lines, summary in words; format: cell-based; conditions: cellular lines LNCaP and PC3, and 647V, 1207
Experimental: as §2, §3
The compound of Ex. 7, reported in the Table with the simplified denomination of nitrooxybutyl ester of the aspirin der. with ferulic ac. is active, at 10^−5 concentrations, in prostate tumours as shown by the results obtained on the cellular lines LNCaP and PC3.

[8] = tested on: 647V human epithelial cells of bladder cancer; assay: Antiproliferative activity, MTT, bladder cancer line 647V; format: cell-based; conditions: 96 h, 4 days, vs DMSO 1%, read-out: Inhibition of the proliferative activity (%); for inhibition at 100 µM: 10^-4 M; for inhibition at 10 µM: 10^-5 M; for inhibition at 1 µM: 10^-6 M
Experimental: as §1, §2, §3

[9] = tested on: 1207 human epithelial cells of bladder cancer; assay: Antiproliferative activity, MTT, bladder cancer line 1207; format: cell-based; conditions: Epithelial cell, 96 h, 4 days, vs DMSO 1%, read-out: Inhibition of the proliferative activity (%); for inhibition at 100 µM: 10^-4 M; for inhibition at 10 µM: 10^-5 M; for inhibition at 1 µM: 10^-6 M
Experimental: as §1, §2, §3

[10] = tested on: PNT1A human epithelial cells of prostate cancer; assay: Antiproliferative activity, MTT, prostate cancer line PNT1A; format: cell-based; conditions: 96 h, 4 days, vs DMSO 1%, read-out: Inhibition of the proliferative activity (%); for inhibition at 100 µM: 10^-4 M; for inhibition at 10 µM: 10^-5 M; for inhibition at 1 µM: 10^-6 M
Experimental: as §1, §2, §3

Structure (SMILES): O=C(O)c1ccccc1O [Salicylic acid, Salicylic Acid, reference compound]
- timidine incorporation, With 25 μM Cisplatinum [1]: 100%
- timidine incorporation, Without Cisplatinum [1]: 438%

Structure (SMILES): CC(=O)Nc1ccc(OC(=O)CCCO[N+](=O)[O-])cc1 [Ex. 9, 4-nitrooxybutanoic acid 4′-acetylamino phenyl ester]
- response vs control in vivo at 500 mg/kg [2]: 10%

Structure (SMILES): COc1cc(/C=C/C(=O)Oc2ccc(NC(C)=O)cc2)ccc1OC(=O)CCCO[N+](=O)[O-] [Ex. 8, trans-3-[4-(4′-nitrooxybutyryloxy)-3-methoxyphenyl]-2-propenoic acid 4-(acetylamino)phenyl ester]
- response vs control in vivo at 500 mg/kg [2]: 8%

Structure (SMILES): CC(=O)Oc1ccccc1C(=O)OCc1cccc(CO[N+](=O)[O-])n1 [Ex. 1, 2-acetyloxybenzoic acid 6-(nitrooxymethyl)-2-methylpyridinyl ester hydrochloride]
- activity at 10 µM ([3]; HT-29, 10 μM): 0%

Structure (SMILES): CC(=O)Oc1ccccc1C(=O)OCc1ncccc1CO[N+](=O)[O-] [Ex. 4, 2-acetyloxybenzoic acid 3-(nitrooxymethyl)-2-methylpyridinyl ester hydrochloride]
- response vs control in vivo at 300 mg/kg [2]: 7%

Structure (SMILES): COc1cc(/C=C/C(=O)OCCCCO[N+](=O)[O-])ccc1OC(=O)C(C)c1ccc(-c2ccccc2)c(F)c1 (stereo not drawn) [Ex. 17, trans-3-[4-[2-fluoro-α-methyl-(1,1′-biphenyl)-4-acetyloxy]-3-methoxyphenyl]-2-propenoyl 4-(nitrooxy) butyl ester]
- inhibition at 100 µM [4]: 23%
- inhibition at 10 µM [4]: 0%
- inhibition at 1 µM [4]: 0%
- inhibition at 100 µM [5]: 53%
- inhibition at 10 µM [5]: 20%
- inhibition at 1 µM [5]: 8%
- inhibition at 100 µM [6]: 58%
- inhibition at 10 µM [6]: 26%
- inhibition at 1 µM [6]: 1%
- activity in very aggressive prostate and bladder tumours (in words) [7]: active
- inhibition at 100 µM [8]: 41%
- inhibition at 10 µM [8]: 13%
- inhibition at 1 µM [8]: 0%
- inhibition at 100 µM [9]: 34%
- inhibition at 10 µM [9]: 0%
- inhibition at 1 µM [9]: 0%
- inhibition at 100 µM [10]: 13%
- inhibition at 10 µM [10]: 2%
- inhibition at 1 µM [10]: 0%

Structure (SMILES): CC(=O)Oc1ccccc1C(=O)OCc1ccc(CO[N+](=O)[O-])cn1 [Ex. 3, 2-acetyloxybenzoic acid 5-(nitrooxymethyl)-2-methylpyridinyl ester hydrochloride]
- response vs control in vivo at 300 mg/kg [2]: 5%

Structure (SMILES): CC1=C(CC(=O)OCc2cccc(CO[N+](=O)[O-])n2)c2cc(F)ccc2/C1=C\c1ccc([S+](C)[O-])cc1 (centres unmarked) [Ex. 19]
- response vs control in vivo at 200 mg/kg [2]: 23%

Structure (SMILES): CC(=O)Oc1ccccc1C(=O)Oc1ccccc1CO[N+](=O)[O-] [Ex. 20, 2-acetyloxybenzoic acid 2-(nitrooxymethyl)phenyl ester]
- activity at 20 µM ([3]; HT-29, 20 μM): 50%

Structure (SMILES): CC(=O)Oc1ccccc1C(=O)Oc1cccc(CO[N+](=O)[O-])c1 [Ex. 5, 3-nitrooxymethylphenyl ester of the 2-acetoxybenzoic acid]
- timidine incorporation, With 25 μM Cisplatinum [1]: 46%
- timidine incorporation, Without Cisplatinum [1]: 192%
- activity at 300 µM ([3]; HT-29, 300 μM): 40%

Structure (SMILES): CC(=O)Oc1ccccc1C(=O)O [Aspirin, Acetylsalicylic Acid, reference compound]
- timidine incorporation, With 25 μM Cisplatinum [1]: 100%
- timidine incorporation, Without Cisplatinum [1]: 438%
- response vs control in vivo at 300 mg/kg [2]: 120%
- activity at 500 µM ([3]; HT-29, 500 μM): 100%

Structure (SMILES): CC(=O)Nc1ccc(O)cc1 [Paracetamol, reference compound]
- response vs control in vivo at 500 mg/kg [2]: 160%

Structure (SMILES): CC1=C(CC(=O)O)c2cc(F)ccc2/C1=C\c1ccc([S+](C)[O-])cc1 (centres unmarked) [Sulindac, reference compound]
- response vs control in vivo at 200 mg/kg [2]: 115%
- activity at 50 µM ([3]; HT-29, 50 μM): 100%

Structure (SMILES): COc1cc(/C=C/C(=O)OCCCCO[N+](=O)[O-])ccc1OC(=O)C(C)c1ccc(CC(C)C)cc1 (stereo not drawn) [Ex. 16, Trans-3-[4-[α-methyl-[4-(-2-methylpropyl)benzene]acetyloxy]-3-methoxyphenyl]-2-propenoyl 4-(nitrooxy) butyl ester]
- inhibition at 100 µM [4]: 22%
- inhibition at 10 µM [4]: 0%
- inhibition at 1 µM [4]: 0%
- inhibition at 100 µM [5]: 47%
- inhibition at 10 µM [5]: 9%
- inhibition at 1 µM [5]: 4%
- inhibition at 100 µM [6]: 60%
- inhibition at 10 µM [6]: 33%
- inhibition at 1 µM [6]: 8%
- activity in very aggressive prostate and bladder tumours (in words) [7]: active
- inhibition at 100 µM [8]: 45%
- inhibition at 10 µM [8]: 0%
- inhibition at 1 µM [8]: 0%
- inhibition at 100 µM [9]: 43%
- inhibition at 10 µM [9]: 0%
- inhibition at 1 µM [9]: 2%
- inhibition at 100 µM [10]: 20%
- inhibition at 10 µM [10]: 4%
- inhibition at 1 µM [10]: 0%

Structure (SMILES): O=C(Oc1cccc(CO[N+](=O)[O-])c1)c1ccccc1O [Ex. 15, 2-hydroxybenzoic Acid 3-(nitrooxymethyl)phenyl ester]
- timidine incorporation, With 25 μM Cisplatinum [1]: 50%
- timidine incorporation, Without Cisplatinum [1]: 246%
